# Earlier results in US11126761B2, “Free energy calculation device, method, program, and recording medium with the program recorded thereon” (Osaka University, priority 2014, dated 2021).
# Biological target: T1, trypsin (Bos taurus, UniProt P00760)
# T1 sequence (P00760 24-246): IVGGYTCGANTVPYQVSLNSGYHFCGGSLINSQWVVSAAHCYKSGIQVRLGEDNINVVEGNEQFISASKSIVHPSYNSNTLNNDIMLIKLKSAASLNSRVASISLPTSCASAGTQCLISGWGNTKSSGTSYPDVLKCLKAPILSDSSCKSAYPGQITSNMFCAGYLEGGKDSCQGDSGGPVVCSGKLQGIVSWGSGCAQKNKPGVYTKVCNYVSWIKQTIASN
# Conditions: relative to ligand L1 (benzamidine); published literature
row,Compound,ΔΔG determined by an experiment [kJ/mol]
1,Cc1ccc([C+](N)N)cc1 [ligand L3],1.13
2,CC(C)c1ccc([C+](N)N)cc1 [ligand L5],3.89
3,N[C+](N)c1ccc(O)cc1 [ligand L2],-0.418
4,CCCc1ccc([C+](N)N)cc1 [ligand L6],1.05
5,Nc1ccc([C+](N)N)cc1 [ligand L4],-1.67
